According to paper PMC11822212, “High-throughput screening identifies Aurora kinase B as a critical therapeutic target for Merkel cell carcinoma” (Nature Communications, 2025):
Where a name gives a salt, the structure may show the parent alone. Read-outs that look alike come from different tables or passages of the source.

Key:
[1] = tested on: MCC13 cells (VN-MCC); assay: qHTS cell viability (CellTiter-Glo, 72 h; primary and follow-up small molecule screen); assay type: cell-based, human; details: for Percent viability: MCC13, 72h
[2] = tested on: MCC26 cells (VN-MCC); assay: as above; assay type: cell-based, human; details: for Percent viability: MCC26, 72h
[3] = tested on: UISO cells (VN-MCC); assay: as above; assay type: cell-based, human; details: for Percent viability: UISO, 72h
[4] = tested on: WAGA cells (VP-MCC); assay: as above; assay type: cell-based, human; details: for Percent viability: WAGA, 72h
[5] = tested on: MKL-1 cells (VP-MCC); assay: as above; assay type: cell-based, human; details: for Percent viability: MKL1, 72h
[6] = tested on: MKL-2 cells (VP-MCC); assay: as above; assay type: cell-based, human; details: for Percent viability: MKL2, 72h
[7] = tested on: HACAT cells; assay: qHTS cell viability (CellTiter-Glo, 72 h; primary screen), control cell line; assay type: cell-based, human
[8] = tested on: HEK293T cells; assay: as above; assay type: cell-based, human
[9] = tested on: NIH-3T3 cells; assay: as above; assay type: cell-based, mouse
[10] = tested on: CRL-7250 cells; assay: as above; assay type: cell-based
[11] = tested on: VP-MCC cell lines (WAGA, MKL-1, MKL-2); assay: qHTS cell viability, VP-MCC cell lines as a group (mean AUC, VP.MCC.avg); assay type: cell-based, human; details: re-tested in triplicate, follow-up screen
[12] = primary high-throughput screen, viability 72 h, n = 1
[13] = area under the dose-response curve, MCC13 cells, AUC<450 = reduced viability
[14] = area under the dose-response curve, MCC26 cells, AUC<450 = reduced viability
[15] = area under the dose-response curve, UISO cells, AUC<450 = reduced viability
[16] = area under the dose-response curve, WAGA cells, AUC<450 = reduced viability
[17] = area under the dose-response curve, MKL-1 cells, AUC<450 = reduced viability
[18] = area under the dose-response curve, MKL-2 cells, AUC<450 = reduced viability
[19] = area under the dose-response curve, HACAT control cells, AUC<450 = reduced viability
[20] = area under the dose-response curve, HEK293T control cells, AUC<450 = reduced viability
[21] = area under the dose-response curve, NIH3T3 control cells, AUC<450 = reduced viability
[22] = area under the dose-response curve, CRL7250 control cells, AUC<450 = reduced viability

`C[N+]1(C)[C@@H]2C[C@@H](OC(=O)[C@H](CO)c3ccccc3)C[C@H]1[C@@H]1O[C@@H]12` [Scopolamine methylbromide, reference compound] was tested, and the “Area under the dose-response curve (AUC) MCC13” value [1, 12] was 481.8, the “Area under the dose-response curve (AUC) MCC26” value [2, 12] was 475.2 and the “Area under the dose-response curve (AUC) UISO” value [3, 12] was 492.6. The “Area under the dose-response curve (AUC) WAGA” value [4, 12] was 491.2, the “Area under the dose-response curve (AUC) MKL-1” value [5, 12] was 484.0 and the “Area under the dose-response curve (AUC) MKL-2” value [6, 12] was 496.7. For the same compound, the “Area under the dose-response curve (AUC) HACAT” value [7, 12] was 476.9, the “Area under the dose-response curve (AUC) HEK293T” value [8, 12] was 479.5 and the “Area under the dose-response curve (AUC) NIH3T3” value [9, 12] was 468.1. For the same compound, the “Area under the dose-response curve (AUC) CRL7250” value [10, 12] was 474.6.

`O=C(Nc1cccc(Cl)c1)Nc1ncc(CCNc2ncnc3ccsc23)s1` [SNS-314, reference compound] gave a Percent viability ([1]; Log (M) -5.33646) of 49.0%, a Percent viability ([1]; Log (M) -5.81358) of 56.7% and a Percent viability ([1]; Log (M) -6.2907) of 82.7%. It also gave a Percent viability ([1]; Log (M) -6.76782) of 93.1%, a Percent viability ([1]; Log (M) -7.24494) of 90.9% and a Percent viability ([1]; Log (M) -7.72207) of 100.8%. It also gave a Percent viability ([1]; Log (M) -8.19919) of 94.5%, a Percent viability ([1]; Log (M) -8.67631) of 106.6% and a Percent viability ([1]; Log (M) -9.15343) of 125.4%. It also gave a Percent viability ([1]; Log (M) -9.63055) of 116.5%, a Percent viability ([1]; Log (M) -10.1077) of 92.5% and a Percent viability ([2]; Log (M) -5.33646) of 72.0%. The Percent viability ([2]; Log (M) -5.81358) was 84.0%, the Percent viability ([2]; Log (M) -6.2907) was 86.8% and the Percent viability ([2]; Log (M) -6.76782) was 90.3%. It also gave a Percent viability ([2]; Log (M) -7.24494) of 93.9%, a Percent viability ([2]; Log (M) -7.72207) of 97.6% and a Percent viability ([2]; Log (M) -8.19919) of 94.0%. For the same compound, the Percent viability ([2]; Log (M) -8.67631) was 99.1%, the Percent viability ([2]; Log (M) -9.15343) was 95.5% and the Percent viability ([2]; Log (M) -9.63055) was 91.7%. It also gave a Percent viability ([2]; Log (M) -10.1077) of 91.9%, a Percent viability ([3]; Log (M) -5.33646) of 21.7% and a Percent viability ([3]; Log (M) -5.81358) of 56.9%. The Percent viability ([3]; Log (M) -6.2907) was 70.9%, the Percent viability ([3]; Log (M) -6.76782) was 75.0% and the Percent viability ([3]; Log (M) -7.24494) was 93.3%. For the same compound, the Percent viability ([3]; Log (M) -7.72207) was 86.0%, the Percent viability ([3]; Log (M) -8.19919) was 89.1% and the Percent viability ([3]; Log (M) -8.67631) was 101.5%. For the same compound, the Percent viability ([3]; Log (M) -9.15343) was 108.7%, the Percent viability ([3]; Log (M) -9.63055) was 96.8% and the Percent viability ([3]; Log (M) -10.1077) was 98.0%. The Percent viability ([4]; Log (M) -5.33646) was 42.9%, the Percent viability ([4]; Log (M) -5.81358) was 32.8% and the Percent viability ([4]; Log (M) -6.2907) was 39.2%. The Percent viability ([4]; Log (M) -6.76782) was 41.9%, the Percent viability ([4]; Log (M) -7.24494) was 24.7% and the Percent viability ([4]; Log (M) -7.72207) was 26.4%. The Percent viability ([4]; Log (M) -8.19919) was 38.2%, the Percent viability ([4]; Log (M) -8.67631) was 100.0% and the Percent viability ([4]; Log (M) -9.15343) was 100.0%. The Percent viability ([4]; Log (M) -9.63055) was 102.6%, the Percent viability ([4]; Log (M) -10.1077) was 100.0% and the Percent viability ([5]; Log (M) -5.33646) was 37.7%. For the same compound, the Percent viability ([5]; Log (M) -5.81358) was 37.4%, the Percent viability ([5]; Log (M) -6.2907) was 42.7% and the Percent viability ([5]; Log (M) -6.76782) was 49.2%. For the same compound, the Percent viability ([5]; Log (M) -7.24494) was 26.9%, the Percent viability ([5]; Log (M) -7.72207) was 28.2% and the Percent viability ([5]; Log (M) -8.19919) was 56.1%. For the same compound, the Percent viability ([5]; Log (M) -8.67631) was 100.9%, the Percent viability ([5]; Log (M) -9.15343) was 107.4% and the Percent viability ([5]; Log (M) -9.63055) was 103.4%. It also gave a Percent viability ([5]; Log (M) -10.1077) of 99.7%, a Percent viability ([6]; Log (M) -5.33646) of 20.8% and a Percent viability ([6]; Log (M) -5.81358) of 47.8%. The Percent viability ([6]; Log (M) -6.2907) was 56.2%, the Percent viability ([6]; Log (M) -6.76782) was 47.9% and the Percent viability ([6]; Log (M) -7.24494) was 43.4%. For the same compound, the Percent viability ([6]; Log (M) -7.72207) was 52.1%, the Percent viability ([6]; Log (M) -8.19919) was 55.1% and the Percent viability ([6]; Log (M) -8.67631) was 62.3%. The Percent viability ([6]; Log (M) -9.15343) was 100.0%, the Percent viability ([6]; Log (M) -9.63055) was 104.9% and the Percent viability ([6]; Log (M) -10.1077) was 91.4%. The “VP-MCC viability (in words)” value [11] was “consistently and potently reduced VP-MCC viability”.

`Cc1ncc(CNC(=O)N(CCCl)N=O)c(N)n1` [Nimustine] gave an MCC13_AUC [1] of 434.577, an MCC26_AUC [2] of 438.698 and a UISO_AUC [3] of 443.983. The WAGA_AUC [4] was 465.895, the MKL1_AUC [5] was 478.611 and the MKL2_AUC [6] was 504.085. For the same compound, the HACAT_AUC [7] was 461.645, the HEK293T_AUC [8] was 481.182 and the NIH3T3_AUC [9] was 486.849. The CRL7250_AUC [10] was 491.102.

`CCOc1cc(N)c(Cl)cc1C(=O)NCC1CN(Cc2ccc(F)cc2)CCO1` (centres unmarked) [Mosapride citrate] showed an MCC13_AUC [1, 13] of 479.818, an MCC26_AUC [2, 14] of 466.055 and a UISO_AUC [3, 15] of 489.758. The WAGA_AUC [4, 16] was 443.892, the MKL1_AUC [5, 17] was 438.77 and the MKL2_AUC [6, 18] was 377.067. For the same compound, the HACAT_AUC [7, 19] was 473.779, the HEK293T_AUC [8, 20] was 457.079 and the NIH3T3_AUC [9, 21] was 470.089. It also gave a CRL7250_AUC [10, 22] of 480.736.

In the case of `C[N+]1(CC2COC(c3ccccc3)(C3CCCCC3)O2)CCCCC1` (centres unmarked) [Oxapium iodide], the MCC13_AUC [1, 13] is reported as 501.634, the MCC26_AUC [2, 14] is reported as 482.458 and the UISO_AUC [3, 15] is reported as 505.529. It also gave a WAGA_AUC [4, 16] of 422.785, an MKL1_AUC [5, 17] of 436.858 and an MKL2_AUC [6, 18] of 426.411. It also gave an HACAT_AUC [7, 19] of 474.271, an HEK293T_AUC [8, 20] of 460.835 and an NIH3T3_AUC [9, 21] of 474.75. For the same compound, the CRL7250_AUC [10, 22] was 483.841.
